Molecules are shown by their SMILES.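 96-well plates; 48 h exposure; 5 concentrations. Endpoints by linear interpolation between flanking doses. Not reached: highest tested concentration assigned. Here, GI50 denotes the concentration required for 50% inhibition of growth.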 Active and inactive are the calls of the source. Cut-off read from the data, not from the text of the source: active = GI50 up to about 1.1 µM and inactive = higher.

Assay in all cases: NCI anticancer screen, dose series, 48 h
The test system of assay [1] is M14.
For assay [2], the system named is K562.
Assay [3] concerns HCT-15.
Assay [4] relates to SF-268.
The subject of assay [5] is MDA-MB-231.
Assay [6] concerns UACC-257.
In assay [7] the test system is CCRF-CEM.
Assay [8] deals with NCI-H23.
Assay [9] has as its system SW-620.
Assay [10] has as its system SK-MEL-2.
Assay [11] relates to RXF 393.
Assay [12] has as its system DU-145.
The subject of assay [13] is OVCAR-4.
Assay [14] has as its system SNB-19.
Assay [15] deals with NCI-H460.
The subject of assay [16] is SK-MEL-28.
The subject of assay [17] is A498.
Assay [18] has as its system HOP-92.
Assay [19] deals with UACC-62.
In assay [20] the test system is NCI-H226.

For `O=C1c2cc3c(cc2CC12Cc1cc4c(cc1C2=O)CCC4)CCCC3` (stereo unspecified), the GI50 in [1] is > 100 µM (inactive); in assay [2], > 100 µM (inactive); in [3], over 100 µM; in assay [4], > 100 µM (inactive); in [5], > 100 µM (inactive); in [6] it was > 100 µM (inactive). Also, the GI50 in assay [7], in assay [8], in [9], in assay [10], in [11] and in [12] was > 100 µM (inactive) in each case. For the same molecule, the GI50 in assay [13], in assay [14], in assay [15], in assay [16], in assay [17] and in assay [18] was > 100 µM (inactive) each time.
On to `O=[N+]([O-])c1ccc(Cl)cc1-n1nc(-c2ccccc2)cc1-c1ccccc1`, for which the GI50 in [1] was > 100 µM (inactive); in assay [2], > 100 µM (inactive); in [3], over 100 µM; in [4], > 100 µM (inactive); in assay [19], > 100 µM (inactive); in assay [5], > 100 µM (inactive). Moreover, the GI50 in assay [6], in [7], in assay [8], in assay [9], in assay [10] and in [20] was > 100 µM (inactive) throughout. Further, the GI50 in assay [12], in [13], in [14], in [15], in assay [16] and in assay [17] was > 100 µM (inactive) in each case. For the same molecule, in assay [18], the GI50 is > 100 µM (inactive).
Turning to `CSc1nc(SC)c2c(CN=[N+]=[N-])c(Br)n(Cc3ccccc3)c2n1`, the GI50 in assay [1] was > 100 µM (inactive); in assay [3] it was over 100 µM; in assay [4] it was > 100 µM (inactive); in assay [19], 47.3 µM (inactive); in assay [5], 52.7 µM (inactive); in [7], 72.6 µM (inactive). The GI50 in [8] is > 100 µM (inactive); in assay [9], > 100 µM (inactive); in assay [10] it was > 100 µM (inactive); in assay [20] it was 83.8 µM (inactive); in assay [12] it was > 100 µM (inactive); in assay [13], 76.7 µM (inactive). Besides, the GI50 in assay [14] was > 100 µM (inactive); in assay [15], > 100 µM (inactive); in [16] it was > 100 µM (inactive); in [17], > 100 µM (inactive); in assay [18], 15 µM (inactive).
As for `O=C(CC(C(=O)c1cccs1)c1ccsc1)c1ccccc1` (stereo unspecified), the GI50 is 34.9 µM (inactive) in assay [1]; 48.1 µM in [3]; > 100 µM (inactive) in assay [4]; 50.7 µM (inactive) in assay [19]; 17.5 µM (inactive) in assay [5]; > 100 µM (inactive) in [6]. The GI50 in [7] was > 100 µM (inactive); in assay [8], 26.4 µM (inactive); in assay [9] it was > 100 µM (inactive); in [11], 61 µM (inactive); in [20], > 100 µM (inactive); in assay [12], > 100 µM (inactive). Further, the GI50 is 24 µM (inactive) in [13]; 51.4 µM (inactive) in assay [15]; > 100 µM (inactive) in [16]; 51.8 µM (inactive) in assay [17]; > 100 µM (inactive) in assay [18].
Turning to `Nc1ncnc2c1ccn2CC#CCO`, the GI50 in [1] is > 100 µM (inactive); in [2] it was > 100 µM (inactive); in [3], over 100 µM; in [4], > 100 µM (inactive); in [19], > 100 µM (inactive); in [5] it was > 100 µM (inactive). For the same molecule, the GI50 in [6] is > 100 µM (inactive); in assay [7], > 100 µM (inactive); in assay [8] it was > 100 µM (inactive); in [9], > 100 µM (inactive); in assay [10] it was > 100 µM (inactive); in assay [11] it was 97.3 µM (inactive). For the same molecule, the GI50 in assay [12], in [13], in assay [14], in assay [15], in assay [16] and in [17] was > 100 µM (inactive) each time. Besides, in assay [18], the GI50 was > 100 µM (inactive).
Take `CC(O)(Cc1ccccc1C#N)Cc1ccccc1C#N`: the GI50 in assay [1] is > 100 µM (inactive); in assay [2] it was 50 µM (inactive); in assay [3], 79.3 µM; in [4], > 100 µM (inactive); in assay [19], 59.8 µM (inactive); in assay [5], > 100 µM (inactive). The GI50 was 89.7 µM (inactive) in [6]; > 100 µM (inactive) in assay [9]; > 100 µM (inactive) in assay [10]; > 100 µM (inactive) in [11]; 50 µM (inactive) in assay [20]; > 100 µM (inactive) in assay [12]. For the same molecule, the GI50 in assay [13] is 54.2 µM (inactive); in assay [14], > 100 µM (inactive); in assay [15], 73.6 µM (inactive); in assay [16], > 100 µM (inactive); in assay [17], > 100 µM (inactive); in assay [18], 95.5 µM (inactive).
Take `Cc1cc2c(cc1Cl)SC(NNc1ccc([N+](=O)[O-])cc1)=NS2(=O)=O`: the GI50 in assay [1] was > 10 µM (inactive); in [2], > 10 µM (inactive); in assay [3], over 10 µM; in assay [4] it was > 10 µM (inactive); in assay [19] it was > 10 µM (inactive); in assay [5] it was > 10 µM (inactive). In addition, the GI50 in assay [6], in assay [7], in assay [8], in [9], in [10] and in assay [11] was > 10 µM (inactive) throughout. For the same molecule, the GI50 in [20], in assay [12], in assay [13], in assay [14], in assay [15] and in assay [16] was > 10 µM (inactive) throughout. In addition, in assay [17], the GI50 is > 10 µM (inactive).
For `O=C(O)c1ccccc1C(=O)c1ccc2c(c1)Cc1ccccc1-2`, the GI50 in assay [1] was > 100 µM (inactive); in assay [2] it was 57.9 µM (inactive); in assay [3], 57.5 µM; in assay [4], > 100 µM (inactive); in [19], 66.8 µM (inactive); in assay [5] it was > 100 µM (inactive). The GI50 in assay [6] is > 100 µM (inactive); in assay [8], > 100 µM (inactive); in assay [9], > 100 µM (inactive); in assay [10], > 100 µM (inactive); in assay [11] it was > 100 µM (inactive); in assay [20] it was 36.1 µM (inactive). In addition, the GI50 in [12] is > 100 µM (inactive); in [13], > 100 µM (inactive); in assay [14], > 100 µM (inactive); in assay [15], 46.1 µM (inactive); in [16], 53.7 µM (inactive); in [17], > 100 µM (inactive). In assay [18], the GI50 is > 100 µM (inactive).
For the molecule `COc1ccc(C2C(=O)c3c(OC)cc(OC)cc3OC2c2cccnc2)cc1` (stereo unspecified), the GI50 is > 100 µM (inactive) in assay [1]; 59.6 µM (inactive) in assay [2]; over 100 µM in [3]; > 100 µM (inactive) in assay [4]; 82.2 µM (inactive) in assay [19]; > 100 µM (inactive) in assay [5]. Besides, the GI50 in assay [6] is > 100 µM (inactive); in [7] it was 66.2 µM (inactive); in [8] it was > 100 µM (inactive); in assay [9], > 100 µM (inactive); in [10], > 100 µM (inactive); in assay [11] it was > 100 µM (inactive). Also, the GI50 is 43.8 µM (inactive) in assay [20]; > 100 µM (inactive) in [12]; 44.2 µM (inactive) in [13]; > 100 µM (inactive) in assay [14]; 92.7 µM (inactive) in [15]; > 100 µM (inactive) in [16]. Also, the GI50 in [17] was > 100 µM (inactive).
Consider `CC(C)CN(CC#N)CC(C)C`, for which the GI50 is > 100 µM (inactive) in assay [1]; > 100 µM (inactive) in assay [2]; over 100 µM in assay [3]; > 100 µM (inactive) in assay [4]; > 100 µM (inactive) in assay [19]; > 100 µM (inactive) in [5]. The GI50 in assay [6], in assay [8], in assay [9], in assay [11], in assay [20] and in assay [12] was > 100 µM (inactive) throughout. The GI50 in [13], in [14], in [15], in assay [16], in assay [17] and in assay [18] was > 100 µM (inactive) in each case.
As for `O=c1c(C(c2ccc(-c3ccccc3)cc2)c2c(O)oc3ccccc3c2=O)c(O)oc2ccccc12`, the GI50 is 45.5 µM (inactive) in [2]; 19.1 µM in [3]; 21.8 µM (inactive) in assay [4]; 19.3 µM (inactive) in assay [19]; 23.3 µM (inactive) in [5]; 34.4 µM (inactive) in [6]. Further, the GI50 in [7] is 31.3 µM (inactive); in assay [8], 24.8 µM (inactive); in assay [9], 16.4 µM (inactive); in [10], 22.5 µM (inactive); in assay [20], 23.2 µM (inactive); in assay [12] it was 59.8 µM (inactive). Moreover, the GI50 in [13] was 35.1 µM (inactive); in [14] it was 30.5 µM (inactive); in assay [15], 18.9 µM (inactive); in assay [16], 16.3 µM (inactive); in assay [17], 31 µM (inactive); in [18], 19.1 µM (inactive).

(Values after ChEMBL document CHEMBL1201862, “PubChem BioAssay data set” (2004).)
